Experimental data: patent US20080014278A1, “METAL-CONTAINING FORMULATIONS AND METHODS OF USE” (priority 2006, published 2008)

Experiments:
Streptococcus pyogenes = assay: MIC assay (microdilution); format: cell-based
Staph. aureus = assay: Minimal bactericidal concentration (MBC) assay; format: cell-based, Staphylococcus aureus
Protocol: (§1) Minimal bactericidal concentration (MBC) assay—Overnight-grown MIC plates, prepared as described in Example 16, were evaluated to determine the MIC. Culture was then sampled from wells at and near the MIC using sterile inoculating loops, and transferred to fresh MHA plates to determine if viable bacteria remained. […] The MBC was determined as the well in the MIC plate which contained the lowest concentration of silver yielding no bacterial growth on the MHA plate.

Ps. aeruginosa = assay: Minimal bactericidal concentration (MBC) assay; format: cell-based, Pseudomonas aeruginosa
Protocol: as §1

Proteus mirabilis = assay: MIC assay (microdilution); format: cell-based; conditions: Prot. mirabilis NP405
[1] = tested on: Mycobacterium tuberculosis H37Ra; format: cell-based
B. multivorans = assay: Minimal bactericidal concentration (MBC) assay; format: cell-based, Burkholderia multivorans
Protocol: as §1

Pseudomonas aeruginosa = assay: MIC assay (microdilution); format: cell-based
Staphylococcus aureus = assay: MIC assay (microdilution); format: cell-based
Escherichia coli = assay: MIC assay (microdilution); format: cell-based
E. coli = assay: Minimal bactericidal concentration (MBC) assay; format: cell-based, Escherichia coli
Protocol: as §1

Citrobacter freundii = assay: MIC assay (microdilution); format: cell-based; conditions: C. freundii NP410
[2] = tested on: Staphylococcus epidermidis; assay: MIC assay (microdilution); format: cell-based
Serratia marcescens = assay: MIC assay (microdilution); format: cell-based
Streptococcus pneumoniae = assay: MIC assay (microdilution); format: cell-based; conditions: lactate solutions, nanocrystalline silver: range for 12 samples
Burkholderia dolosa = assay: MIC assay (microdilution); format: cell-based
Enterobacter cloacae = assay: MIC assay (microdilution); format: cell-based; conditions: Enterobacter cloacae
Staph epidermidis = assay: Minimal bactericidal concentration (MBC) assay; format: cell-based, Staphylococcus epidermidis
Protocol: as §1

Prot. mirabilis = assay: Minimal bactericidal concentration (MBC) assay; format: cell-based, Proteus mirabilis; conditions: Prot. mirabilis NP405
Protocol: as §1

K. pneumoniae = assay: Minimal bactericidal concentration (MBC) assay; format: cell-based, Klebsiella pneumoniae
Protocol: as §1

Strep. pyogenes = assay: Minimal bactericidal concentration (MBC) assay; format: cell-based, Streptococcus pyogenes
Protocol: as §1

Ser. marcescens = assay: Minimal bactericidal concentration (MBC) assay; format: cell-based, Serratia marcescens
Protocol: as §1

B dolosa = assay: Minimal bactericidal concentration (MBC) assay; format: cell-based, Burkholderia dolosa
Protocol: as §1

Burkholderia multivorans = assay: MIC assay (microdilution); format: cell-based
Klebsiella pneumoniae = assay: MIC assay (microdilution); format: cell-based
C. freundii = assay: Minimal bactericidal concentration (MBC) assay; format: cell-based, Citrobacter freundii; conditions: C. freundii NP410
Protocol: as §1

[3] = Ser. marcescens NP402, second entry
[4] = Ser. marcescens NP408, second entry
[5] = K. pneumoniae NP403, second entry

For `O=[N+]([O-])[O-].[Ag+]` [AgNO3, silver nitrate], the MIC (Streptococcus pyogenes; Strep. pyogenes NP303) was 3 parts silver per million, the MIC (Streptococcus pyogenes; Strep. pyogenes NP304) was 6 parts silver per million and the MIC (Streptococcus pyogenes; Strep. pyogenes NP306) was 6 parts silver per million. For the same compound, the MIC (Streptococcus pyogenes; lactate solutions, S. pyog (clin. 303), nanocrystalline silver: range for 12 samples) was 3 µg/mL, the MIC (Streptococcus pyogenes; lactate solutions, S. pyog (clin. 304), nanocrystalline silver: range for 12 samples) was 5 µg/mL and the MBC (Staph. aureus; Staph. aureus 6538) was 6 parts silver per million. The MBC (Staph. aureus; Staph. aureus 700699) was 6 parts silver per million, the MBC (Staph. aureus; Staph. aureus NP101) was 11 parts silver per million and the MBC (Staph. aureus; Staph. aureus NP102) was 6 parts silver per million. It also gave an MBC (Staph. aureus; Staph. aureus NP103) of 6 parts silver per million, an MBC (Ps. aeruginosa; Ps. aeruginosa 27317) of 3 parts silver per million and an MBC (Ps. aeruginosa; Ps. aeruginosa NP201) of 3 parts silver per million. It also gave an MBC (Ps. aeruginosa; Ps. aeruginosa NP204) of 3 parts silver per million, an MBC (Ps. aeruginosa; Ps. aeruginosa NP206) of 1 parts silver per million and an MIC (Proteus mirabilis) of 6 parts silver per million. For the same compound, the MIC [1] was 2.5 μg/ml silver, the MBC (B. multivorans; B. multivorans B1) was 3 parts silver per million and the MBC (B. multivorans; B. multivorans B2) was 3 parts silver per million. For the same compound, the MBC (B. multivorans; B. multivorans B4) was 3 parts silver per million, the MIC (Pseudomonas aeruginosa; P. aeruginosa NP212, formulation type Lactate) was 2 ppm and the MIC (Pseudomonas aeruginosa; P. aeruginosa NP212, formulation type Water/Lecithin) was 3 ppm. The MIC (Pseudomonas aeruginosa; P. aeruginosa NP212, formulation type Water/PVA) was 3 ppm, the MIC (Pseudomonas aeruginosa; P. aeruginosa NP213, Lactate) was 1 ppm and the MIC (Pseudomonas aeruginosa; P. aeruginosa NP213, Water/Lecithin) was 1 ppm. It also gave an MIC (Pseudomonas aeruginosa; P. aeruginosa NP213, Water/PVA) of 1 ppm, an MIC (Pseudomonas aeruginosa; P. aeruginosa NP214, Lactate) of 1 ppm and an MIC (Pseudomonas aeruginosa; P. aeruginosa NP214, Water/Lecithin) of 1 ppm. It also gave an MIC (Pseudomonas aeruginosa; P. aeruginosa NP214, Water/PVA) of 3 ppm, an MIC (Pseudomonas aeruginosa; Ps. aeruginosa 9027) of 1 parts silver per million and an MIC (Pseudomonas aeruginosa; Ps. aeruginosa 27317) of 2 parts silver per million. For the same compound, the MIC (Pseudomonas aeruginosa; Ps. aeruginosa NP201) was 1 parts silver per million, the MIC (Pseudomonas aeruginosa; Ps. aeruginosa NP204) was 1 parts silver per million and the MIC (Pseudomonas aeruginosa; Ps. aeruginosa NP206) was 1 parts silver per million. The MIC (Pseudomonas aeruginosa; lactate solutions, P. aerug (ATCC), nanocrystalline silver: range for 12 samples) was 3 µg/mL, the MIC (Pseudomonas aeruginosa; lactate solutions, P. aerug. (clin.), nanocrystalline silver: range for 12 samples) was 3 µg/mL and the MIC (Staphylococcus aureus; Staph aureus NP101, Lactate) was 9 ppm. For the same compound, the MIC (Staphylococcus aureus; Staph aureus NP101, Water/Lecithin) was 11 ppm, the MIC (Staphylococcus aureus; Staph aureus NP101, Water/PVA) was 11 ppm and the MIC (Staphylococcus aureus; Staph aureus NP102, Lactate) was 9 ppm. It also gave an MIC (Staphylococcus aureus; Staph aureus NP102, Water/Lecithin) of 11 ppm, an MIC (Staphylococcus aureus; Staph aureus NP102, Water/PVA) of 11 ppm and an MIC (Staphylococcus aureus; Staph aureus NP103, Lactate) of 9 ppm. It also gave an MIC (Staphylococcus aureus; Staph aureus NP103, Water/Lecithin) of 11 ppm, an MIC (Staphylococcus aureus; Staph aureus NP103, Water/PVA) of 11 ppm and an MIC (Staphylococcus aureus; Staph. aureus 6538) of 6 parts silver per million. The MIC (Staphylococcus aureus; Staph. aureus 700699) was 3 parts silver per million, the MIC (Staphylococcus aureus; Staph. aureus NP101) was 6 parts silver per million and the MIC (Staphylococcus aureus; Staph. aureus NP102) was 6 parts silver per million. The MIC (Staphylococcus aureus; Staph. aureus NP103) was 6 parts silver per million, the MIC (Staphylococcus aureus; lactate solutions, S. aureus (ATCC), nanocrystalline silver: range for 12 samples) was 11 µg/mL and the MIC (Staphylococcus aureus; lactate solutions, S. aureus (clin.), nanocrystalline silver: range for 12 samples) was 5 µg/mL. For the same compound, the MIC (Escherichia coli; E. coli 8739) was 0.4 parts silver per million, the MIC (Escherichia coli; E. coli 43745) was 1 parts silver per million and the MIC (Escherichia coli; E. coli NP412) was 1 parts silver per million. For the same compound, the MIC (Escherichia coli; lactate solutions, E. coli (ATCC), nanocrystalline silver: range for 12 samples) was 3 µg/mL, the MBC (E. coli; E. coli 8739) was 0.4 parts silver per million and the MBC (E. coli; E. coli 43745) was 0.4 parts silver per million. It also gave an MBC (E. coli; E. coli NP412) of 1 parts silver per million, an MIC (Citrobacter freundii) of 3 parts silver per million and an MIC ([2]; Staph epidermidis 12228) of 3 parts silver per million. The MIC ([2]; Staph epidermidis NP136) was 3 parts silver per million, the MIC ([2]; lactate solutions, S. epiderm (ATCC), nanocrystalline silver: range for 12 samples) was 3 µg/mL and the MIC (Serratia marcescens; Ser. marcescens NP402) was 6 parts silver per million. The MIC (Serratia marcescens; [3]) was 6 parts silver per million, the MIC (Serratia marcescens; Ser. marcescens NP408) was 6 parts silver per million and the MIC (Serratia marcescens; [4]) was 11 parts silver per million. For the same compound, the MIC (Serratia marcescens; Serratia marcescens, aerobic +) was 6 µg/mL, the MIC (Serratia marcescens; Serratia marcescens, aerobic − (anaerobic)) was 13 µg/mL and the MIC (Streptococcus pneumoniae; S. pneumo (clin 314)) was 11 µg/mL. It also gave an MIC (Streptococcus pneumoniae; S. pneumo (clin 315)) of 21 µg/mL, an MIC (Burkholderia dolosa; B dolosa A3) of 2 parts silver per million and an MIC (Burkholderia dolosa; B dolosa A4) of 2 parts silver per million. The MIC (Enterobacter cloacae; aerobic +) was 13 µg/mL, the MIC (Enterobacter cloacae; aerobic − (anaerobic)) was 25 µg/mL and the MBC (Staph epidermidis; Staph epidermidis 12228) was 3 parts silver per million. It also gave an MBC (Staph epidermidis; Staph epidermidis NP136) of 3 parts silver per million, an MBC (Prot. mirabilis) of 13 parts silver per million and an MBC (K. pneumoniae; K. pneumoniae NP401) of 3 parts silver per million. For the same compound, the MBC (K. pneumoniae; K. pneumoniae NP403) was 6 parts silver per million, the MBC (K. pneumoniae; [5]) was 3 parts silver per million and the MBC (K. pneumoniae; K. pneumoniae NP406) was 1 parts silver per million. For the same compound, the MBC (Strep. pyogenes; Strep. pyogenes NP303) was 10 parts silver per million, the MBC (Strep. pyogenes; Strep. pyogenes NP304) was 21 parts silver per million and the MBC (Strep. pyogenes; Strep. pyogenes NP306) was 21 parts silver per million. It also gave an MBC (Ser. marcescens; Ser. marcescens NP402) of 6 parts silver per million, an MBC (Ser. marcescens; [3]) of 6 parts silver per million and an MBC (Ser. marcescens; Ser. marcescens NP408) of 6 parts silver per million. The MBC (Ser. marcescens; [4]) was 11 parts silver per million, the MBC (B dolosa; B dolosa A3) was 3 parts silver per million and the MBC (B dolosa; B dolosa A4) was 2 parts silver per million. For the same compound, the MIC (Burkholderia multivorans; B. multivorans B1) was 3 parts silver per million, the MIC (Burkholderia multivorans; B. multivorans B2) was 3 parts silver per million and the MIC (Burkholderia multivorans; B. multivorans B4) was 2 parts silver per million. It also gave an MIC (Klebsiella pneumoniae; K. pneumoniae NP401) of 3 parts silver per million, an MIC (Klebsiella pneumoniae; K. pneumoniae NP403) of 6 parts silver per million and an MIC (Klebsiella pneumoniae; [5]) of 6 parts silver per million. The MIC (Klebsiella pneumoniae; K. pneumoniae NP406) was 1 parts silver per million, the MIC (Klebsiella pneumoniae; Klebsiella pneumoniae, aerobic +) was 3 µg/mL and the MIC (Klebsiella pneumoniae; Klebsiella pneumoniae, aerobic − (anaerobic)) was 3 µg/mL. The MBC (C. freundii) was 3 parts silver per million.
